Laboratory results reported in publication PMC11062899, “De novo development of small cyclic peptides that are orally bioavailable” (Nature Chemical Biology, 2023).
Values joined by “and” are separate entries in the source; they are usually repeats but may differ in a detail not shown here. Identical values can stand only once.

Legend:
rat α-thrombin = molecular target: T1, rat α-thrombin (Rattus norvegicus, UniProt P18292); assay: Protease inhibition, Ki for rat α-thrombin (fluorogenic substrate Z-Gly-Gly-Arg-AMC); format: biochemical; conditions: replicates R1-R3
T1 construct: rat α-thrombin (Molecular Innovations) were used at final concentrations of 2 nM and 3 nM; purchased Molecular Innovations
Method in brief: (§1)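 Ki derived through Cheng–Prusoff from IC50s (four-parameter logistic fit) against activity of peptide-free controls. Product fluorescence was read every 3 min over 30 min at 25 °C, substrate Z-Gly-Gly-Arg-AMC at 50 μM. Enzyme was 2 nM human or 3 nM rat α-thrombin, pH 7.4 buffer.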

[1] = Peptide stability in simulated intestinal fluid (SIF); format: in vitro ADME, porcine; conditions: simulated gi fluid; 8 h, 37 °C, pH 6.8; read-out: Proteolytic stability: SIF (8 h) % remaining
Protocol: (§2) Simulated gastric and intestinal fluids were prepared according to the States Pharmacopeia specifications (Test Solutions, United States Pharmacopeia 35, NF 30, 2012). SGF: 0.2 g of sodium chloride was dissolved in 50 ml of water, and the pH was adjusted to 1.2 by addition of 0.7 ml of 10 M hydrochloric acid. Then, 0.32 g of porcine pepsin (Sigma-Aldrich, P7125) was dissolved under gentle agitation, and the volume was filled up to 100 ml with Milli-Q water. SIF: 0.68 g of monobasic potassium phosphate was dissolved in 25 ml of Milli-Q water, and the pH was adjusted to 6.8 by adding 7.7 ml of a 0.2 M sodium hydroxide solution. Next, 1 g of porcine pancreatin (Sigma-Aldrich, P3292) was added under gentle agitation, and the volume was adjusted to 100 ml with Milli-Q water to afford a fine suspension. To test the stability in simulated gastrointestinal fluids, 396 μl of SGF or SIF was pre-heated at 37 °C for 10 min, and 4 μl of a 1 mM peptide solution in DMSO was added. […] Supernatant was analyzed by LC–MS to measure the peptide concentrations at the different timepoints. Residual peptide was calculated by normalizing the concentrations measured at T1 to T0.

porcine pancreatin = assay: as above; format: in vitro ADME; conditions: after 8 h vs 0 h (TIC); average of R1-R3
Protocol: as §2

[2] = Passive artificial membrane permeability (PAMPA)
porcine pepsin = molecular target: T2, porcine pepsin (Sus scrofa, UniProt P00791); assay: Peptide stability in simulated gastric fluid (SGF); format: in vitro ADME
T2 construct: 0.32 g of porcine pepsin (Sigma-Aldrich, P7125) was dissolved under gentle agitation; purchased Sigma-Aldrich P7125
Protocol: as §2

[3] = Metabolic stability in rat liver microsomes (RLMs); conditions: rat, microsomes
Protocol: Metabolic stability was measured by incubating the peptides (10 μM) with RLMs. Peptides to test were dissolved in DMSO (4 mM), and 1 μl of the resulting solution was added to 365 μl of 0.1 M sodium phosphate buffer (pH 7.4). The solution was pre-warmed at 37 °C for 5 min before starting the reaction by addition of 24 μl of NADPH cofactor solution (22 mM) and 11 μl of RLMs (20 mg ml^−1 protein concentration; Thermo Fisher Scientific, RTMCPL). […] Samples were vortexed, sonicated for 5 min and centrifuged at 16,000g for 10 min. Supernatant was analyzed by LC–MS to quantify the disappearance of the compound and formation of degradation products.

human α-thrombin = human α-thrombin (Homo sapiens, UniProt P00734); assay: Protease inhibition, Ki for human α-thrombin (fluorogenic substrate Z-Gly-Gly-Arg-AMC); format: biochemical; conditions: replicates R1-R3
Method in brief: as §1

[4] = peptide 1.33E+02 uM, slope of proteolytic substrate cleavage over time

T2 sequence (P00791 60-385): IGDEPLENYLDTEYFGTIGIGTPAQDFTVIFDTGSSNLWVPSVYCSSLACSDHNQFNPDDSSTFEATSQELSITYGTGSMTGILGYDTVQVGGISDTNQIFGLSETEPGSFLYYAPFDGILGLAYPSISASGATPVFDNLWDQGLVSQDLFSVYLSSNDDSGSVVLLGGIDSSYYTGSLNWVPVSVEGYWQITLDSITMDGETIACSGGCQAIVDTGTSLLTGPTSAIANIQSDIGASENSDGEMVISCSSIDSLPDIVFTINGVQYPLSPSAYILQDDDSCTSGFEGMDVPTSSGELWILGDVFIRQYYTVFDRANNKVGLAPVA

## O=C1CC2CCN(CC2)C(=O)[C@H](Cc2ccccc2)NC(=O)[C@@H](NC(=O)c2ccc(Cl)s2)CSCCS(=O)(=O)CCSCCN1 [compound 13]
Rat α-thrombin; [4]
  Rat alpha thrombin inhibition, slope normalized to DMSO: 2.5 and 3.0 and 16.1
Rat α-thrombin; peptide 1.67E+01 uM
  Rat alpha thrombin inhibition, slope normalized to DMSO: 7.6 and 7.2 and 19.3
Rat α-thrombin; peptide 2.08E+00 uM
  Rat alpha thrombin inhibition, slope normalized to DMSO: 36.1 and 33.7 and 41.7
Rat α-thrombin; peptide 2.54E-04 uM
  Slope normalized to DMSO (proteolytic substrate cleavage over time): 99.5 and 98.8
Rat α-thrombin; peptide 3.18E-05 uM
  Slope normalized to DMSO (proteolytic substrate cleavage over time): 98.9
Rat α-thrombin; peptide 3.33E+01 uM
  Rat alpha thrombin inhibition, slope normalized to DMSO: 4.5 and 3.9 and 18.0
Rat α-thrombin; peptide 4.17E+00 uM
  Rat alpha thrombin inhibition, slope normalized to DMSO: 21.1 and 20.6 and 33.2
Rat α-thrombin; peptide 6.36E-05 uM
  Slope normalized to DMSO (proteolytic substrate cleavage over time): 99.5
Rat α-thrombin; peptide 6.51E-02 uM
  Slope normalized to DMSO (proteolytic substrate cleavage over time): 99.3
Rat α-thrombin; peptide 6.67E+01 uM
  Rat alpha thrombin inhibition, slope normalized to DMSO: 2.7 and 2.5 and 17.0
Rat α-thrombin; peptide 8.14E-03 uM
  Slope normalized to DMSO (proteolytic substrate cleavage over time): 99.8 and 99.9
Rat α-thrombin; peptide 8.33E+00 uM
  Rat alpha thrombin inhibition, slope normalized to DMSO: 14.3 and 13.8 and 26.6
[1]
  remaining at 8 h: 96 ± 11%
Porcine pancreatin
  SIF stability, Residual peptide Average: 95.61
[2]; 50 μM, 12–18 h, acceptor concentration relative to equilibrium
  PAMPA permeability: % permeability: 2.0 ± 1.7%
[2]; PAMPA, pH 7.4
  Papp at 50 μM: 0.107 ×10⁻⁶ cm/s
[2]; PAMPA, average of R1-R3
  Permeability% Average: 2.0%
[2]; PAMPA, replicate R1, TIC of top well sample relative to sample at theoretical equilibrium
  Permeability% R1: 3.95%
[2]; PAMPA, replicate R3, TIC of top well sample relative to sample at theoretical equilibrium
  Permeability% R3: 1.45%
Porcine pepsin; after 8 h vs 0 h (TIC), average of R1-R3
  SGF stability, Residual peptide Average: 103.72
Porcine pepsin; after 8 h vs 0 h (TIC), single replicates R1-R3
  SGF stability, Residual peptide: 109.74 and 107.42 and 94.00
Porcine pepsin; simulated gi fluid, 8 h, 37 °C, pH 1.2, read-out: Proteolytic stability: SGF (8 h) % remaining
  remaining at 8 h: 104 ± 8%
[3]; CL (ul/min/mg protein) R1, RLM CL, replicate R1
  microsomal CLint: 187 µL/min/mg
[3]; CL (ul/min/mg protein) R2, RLM CL, replicate R2
  microsomal CLint: 117 µL/min/mg
[3]; CL (ul/min/mg protein) R3, RLM CL, replicate R3
  microsomal CLint: 148 µL/min/mg
[3]; Half Life (min) R1, RLM metabolic stability, replicate R1, 0-60 min
  half-life: 7.4 min
[3]; Half Life (min) R2, RLM metabolic stability, replicate R2, 0-60 min
  half-life: 11.9 min
[3]; Half Life (min) R3, RLM metabolic stability, replicate R3, 0-60 min
  half-life: 9.38 min
[3]; Metabolic stability: Half life T1/2 (min), RLMs, mean and SD, three measurements
  half-life: 9.5 ± 1.8 min
[3]; Metabolic stability: RLM CL (ul/min/mg), RLMs, mean and SD, three measurements
  microsomal CLint: 151 ± 29 µL/min/mg
[3]; Metabolic stability: RLM CL Average, summary table, average of R1-R3
  microsomal CLint: 151 µL/min/mg
[3]; Metabolic stability: RLM CL R1, summary table, rounded, replicate R1
  microsomal CLint: 187 µL/min/mg
[3]; Metabolic stability: RLM CL R2, summary table, rounded, replicate R2
  microsomal CLint: 117 µL/min/mg
[3]; Metabolic stability: RLM CL R3, summary table, rounded, replicate R3
  microsomal CLint: 148 µL/min/mg
Human α-thrombin; peptide 1.02E-03 uM
  Human alpha thrombin inhibition, slope normalized to DMSO: 98.5 and 92.4 and 98.3
Human α-thrombin; peptide 1.04E+00 uM
  Human alpha thrombin inhibition, slope normalized to DMSO: 56.0 and 56.7 and 59.7
Human α-thrombin; peptide 1.27E-04 uM
  Human alpha thrombin inhibition, slope normalized to DMSO: 96.6 and 96.4 and 97.8
Human α-thrombin; peptide 1.30E-01 uM
  Human alpha thrombin inhibition, slope normalized to DMSO: 89.4 and 79.1 and 90.0
Human α-thrombin; [4]
  Human alpha thrombin inhibition, slope normalized to DMSO: 3.8 and 5.6 and 7.2
Human α-thrombin; peptide 1.63E-02 uM
  Human alpha thrombin inhibition, slope normalized to DMSO: 96.8 and 95.2 and 98.6
Human α-thrombin; peptide 1.67E+01 uM
  Human alpha thrombin inhibition, slope normalized to DMSO: 11.2 and 13.1 and 6.6
Human α-thrombin; peptide 2.03E-03 uM
  Human alpha thrombin inhibition, slope normalized to DMSO: 96.1 and 91.3 and 98.5
Human α-thrombin; peptide 2.08E+00 uM
  Human alpha thrombin inhibition, slope normalized to DMSO: 44.5 and 43.9 and 46.9
Human α-thrombin; peptide 2.54E-04 uM
  Human alpha thrombin inhibition, slope normalized to DMSO: 98.7 and 101.9 and 92.3
Human α-thrombin; peptide 2.60E-01 uM
  Human alpha thrombin inhibition, slope normalized to DMSO: 82.9 and 76.8 and 85.2
Human α-thrombin; peptide 3.18E-05 uM
  Human alpha thrombin inhibition, slope normalized to DMSO: 98.4 and 99.1 and 103.6
Human α-thrombin; peptide 3.26E-02 uM
  Human alpha thrombin inhibition, slope normalized to DMSO: 83.8 and 90.0 (2×)
Human α-thrombin; peptide 3.33E+01 uM
  Human alpha thrombin inhibition, slope normalized to DMSO: 7.3 and 17.9 and 6.7
Human α-thrombin; peptide 4.07E-03 uM
  Human alpha thrombin inhibition, slope normalized to DMSO: 97.5 and 98.3 and 97.0
Human α-thrombin; peptide 4.17E+00 uM
  Human alpha thrombin inhibition, slope normalized to DMSO: 31.6 and 18.4 and 32.8
Human α-thrombin; peptide 5.09E-04 uM
  Human alpha thrombin inhibition, slope normalized to DMSO: 94.9 and 94.8 and 96.2
Human α-thrombin; peptide 5.21E-01 uM
  Human alpha thrombin inhibition, slope normalized to DMSO: 73.3 and 69.5 and 73.8
Human α-thrombin; peptide 6.36E-05 uM
  Human alpha thrombin inhibition, slope normalized to DMSO: 99.0 and 95.7 and 105.1
Human α-thrombin; peptide 6.51E-02 uM
  Human alpha thrombin inhibition, slope normalized to DMSO: 92.9 and 89.5 and 93.7
Human α-thrombin; peptide 6.67E+01 uM
  Human alpha thrombin inhibition, slope normalized to DMSO: 5.0 (2×) and 5.6
Human α-thrombin; peptide 8.14E-03 uM
  Human alpha thrombin inhibition, slope normalized to DMSO: 98.2 and 94.5 and 89.6
Human α-thrombin; peptide 8.33E+00 uM
  Human alpha thrombin inhibition, slope normalized to DMSO: 20.4 and 21.3 and 21.0
